Here are results for one compound from BindingDB's records for PubMed 9152366 (University of California San Francisco, 1997).

The target of assay [1] is T1, Vasoactive intestinal polypeptide receptor 2 (Homo sapiens, UniProt P41587).
T1 sequence (P41587 whole entry): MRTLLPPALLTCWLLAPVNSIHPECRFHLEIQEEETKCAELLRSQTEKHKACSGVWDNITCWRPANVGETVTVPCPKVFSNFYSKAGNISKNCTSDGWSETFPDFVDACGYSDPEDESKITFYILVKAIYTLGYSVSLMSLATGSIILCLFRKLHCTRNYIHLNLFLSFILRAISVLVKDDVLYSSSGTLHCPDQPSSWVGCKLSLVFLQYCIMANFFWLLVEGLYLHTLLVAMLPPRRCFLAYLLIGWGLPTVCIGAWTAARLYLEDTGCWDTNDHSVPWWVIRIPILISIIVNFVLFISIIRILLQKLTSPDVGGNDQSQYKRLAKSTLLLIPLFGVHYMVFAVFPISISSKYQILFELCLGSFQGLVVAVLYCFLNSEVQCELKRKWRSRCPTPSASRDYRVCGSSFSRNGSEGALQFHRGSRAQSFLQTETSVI

For a further assay, the target named is T2, VIP peptides (Homo sapiens, UniProt P01282).
T2 sequence (P01282 whole entry): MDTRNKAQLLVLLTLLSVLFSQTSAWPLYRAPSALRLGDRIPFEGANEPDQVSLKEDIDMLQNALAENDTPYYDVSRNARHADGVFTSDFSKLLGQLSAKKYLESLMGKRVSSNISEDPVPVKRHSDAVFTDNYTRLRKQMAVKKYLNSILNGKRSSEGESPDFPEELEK

SMILES strings stand for the structures. Values joined by “and” are separate entries in the source; they are usually repeats but may differ in a detail not shown here. Identical values can stand only once. Bridge positions count the residues as written; N and C are the ends. Square brackets hold non-standard residues; d marks the D form. Peptide text beside a SMILES is read from it. Nle = CCCC[C@H](N)C(=O)O

One may read the Ki as a dissociation constant, usually derived from enzyme kinetics or from competition with a known ligand. A low value points to tighter binding. Take `CCCC[C@H](NC(=O)[C@H](CCC(N)=O)NC(=O)[C@H](CCCCN)NC(=O)[C@H](CCCNC(=N)N)NC(=O)[C@H](CC(C)C)NC(=O)[C@H](CCCCN)NC(=O)[C@@H](NC(=O)[C@H](Cc1ccc(OC)cc1)NC(=O)[C@H](CC(N)=O)NC(=O)[C@H](CCC(=O)O)NC(=O)[C@@H](NC(=O)[C@H](Cc1ccccc1)NC(=O)[C@@H](NC(=O)[C@H](C)NC(=O)[C@H](CC(=O)O)NC(=O)[C@H](CO)NC(=O)[C@H](Cc1c[nH]cn1)NC(C)=O)C(C)C)[C@@H](C)O)[C@@H](C)O)C(=O)N[C@@H](C)C(=O)N[C@@H](C)C(=O)N[C@@H](CCCCN)C(=O)N[C@H]1CCCCNC(=O)C[C@@H](C(=O)N[C@@H](CC(C)C)C(=O)N[C@@H](CCCCN)C(=O)N[C@@H](CCCCN)C(N)=O)NC(=O)[C@H](CC(N)=O)NC(=O)[C@H](CC(C)C)NC(=O)[C@H](Cc2ccc(O)cc2)NC1=O` [CAS_150828-75-4] (Ac-HSDAVFTENY(Me)TKLRKQ[Nle]AAKKYLNDLKK-NH2; lactam 21-25): the Ki in assay [1] was 16 nM and 9.6 nM; at VIP peptides, 3.4 nM.
